The values that follow come from ChEMBL document CHEMBL4028801, “A multifactorial approach to hepatobiliary transporter assessment enables improved therapeutic compound development” (Toxicol Sci, 2013).

In one series the target is Bile salt export pump (Homo sapiens, UniProt O95342). In words: Inhibition of human BSEP overexpressed in Sf9 cell membrane vesicles assessed as uptake of [3H]-taurocholate in presence of ATP measured after 15 to 20 mins by membrane vesicle transport assay. Type of series: ADME, cell-based.
Bile salt export pump, sequence (O95342 whole entry): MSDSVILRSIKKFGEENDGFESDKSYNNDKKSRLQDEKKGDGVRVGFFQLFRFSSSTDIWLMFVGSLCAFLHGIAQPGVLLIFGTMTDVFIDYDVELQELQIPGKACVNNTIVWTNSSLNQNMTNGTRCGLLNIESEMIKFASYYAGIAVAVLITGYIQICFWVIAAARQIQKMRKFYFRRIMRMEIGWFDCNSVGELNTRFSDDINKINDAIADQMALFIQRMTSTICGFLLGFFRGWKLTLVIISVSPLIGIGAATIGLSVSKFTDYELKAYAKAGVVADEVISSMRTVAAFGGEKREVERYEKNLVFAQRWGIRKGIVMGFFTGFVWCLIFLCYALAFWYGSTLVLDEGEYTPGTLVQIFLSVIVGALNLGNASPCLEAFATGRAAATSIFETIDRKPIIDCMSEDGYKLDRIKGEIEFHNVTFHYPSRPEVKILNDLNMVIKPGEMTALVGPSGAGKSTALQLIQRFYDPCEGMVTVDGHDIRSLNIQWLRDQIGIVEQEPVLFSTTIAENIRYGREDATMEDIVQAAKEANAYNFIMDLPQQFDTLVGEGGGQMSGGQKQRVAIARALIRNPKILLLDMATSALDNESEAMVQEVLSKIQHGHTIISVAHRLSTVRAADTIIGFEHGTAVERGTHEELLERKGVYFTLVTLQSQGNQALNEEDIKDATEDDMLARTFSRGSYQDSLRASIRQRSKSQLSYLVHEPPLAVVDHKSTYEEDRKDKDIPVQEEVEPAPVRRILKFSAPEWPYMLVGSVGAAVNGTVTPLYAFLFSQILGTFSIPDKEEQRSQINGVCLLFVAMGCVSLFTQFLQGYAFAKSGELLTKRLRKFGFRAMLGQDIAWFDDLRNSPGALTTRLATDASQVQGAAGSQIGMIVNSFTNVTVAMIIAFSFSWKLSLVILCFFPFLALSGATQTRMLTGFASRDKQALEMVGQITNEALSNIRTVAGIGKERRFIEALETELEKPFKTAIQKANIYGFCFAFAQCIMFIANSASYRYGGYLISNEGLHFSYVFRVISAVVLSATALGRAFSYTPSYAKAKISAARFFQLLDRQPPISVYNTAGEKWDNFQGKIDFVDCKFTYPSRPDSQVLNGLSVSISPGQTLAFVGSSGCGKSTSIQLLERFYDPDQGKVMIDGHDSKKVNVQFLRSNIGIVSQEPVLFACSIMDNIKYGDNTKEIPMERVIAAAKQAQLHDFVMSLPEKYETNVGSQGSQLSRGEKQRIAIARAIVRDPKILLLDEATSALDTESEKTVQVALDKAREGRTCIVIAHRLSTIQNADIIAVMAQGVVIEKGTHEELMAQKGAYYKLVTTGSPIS
In series [1] the target is ATP-binding cassette sub-family C member 3 (Homo sapiens, UniProt O15438). The experiment in a line: Inhibition of human MRP3 overexpressed in Sf9 insect cell membrane vesicles assessed as uptake of [3H]-estradiol-17beta-D-glucuronide in presence of ATP and GSH measured after 10 mins by membrane vesicle transport assay. Type of series: ADME, cell-based.
ATP-binding cassette sub-family C member 3, sequence (O15438 whole entry): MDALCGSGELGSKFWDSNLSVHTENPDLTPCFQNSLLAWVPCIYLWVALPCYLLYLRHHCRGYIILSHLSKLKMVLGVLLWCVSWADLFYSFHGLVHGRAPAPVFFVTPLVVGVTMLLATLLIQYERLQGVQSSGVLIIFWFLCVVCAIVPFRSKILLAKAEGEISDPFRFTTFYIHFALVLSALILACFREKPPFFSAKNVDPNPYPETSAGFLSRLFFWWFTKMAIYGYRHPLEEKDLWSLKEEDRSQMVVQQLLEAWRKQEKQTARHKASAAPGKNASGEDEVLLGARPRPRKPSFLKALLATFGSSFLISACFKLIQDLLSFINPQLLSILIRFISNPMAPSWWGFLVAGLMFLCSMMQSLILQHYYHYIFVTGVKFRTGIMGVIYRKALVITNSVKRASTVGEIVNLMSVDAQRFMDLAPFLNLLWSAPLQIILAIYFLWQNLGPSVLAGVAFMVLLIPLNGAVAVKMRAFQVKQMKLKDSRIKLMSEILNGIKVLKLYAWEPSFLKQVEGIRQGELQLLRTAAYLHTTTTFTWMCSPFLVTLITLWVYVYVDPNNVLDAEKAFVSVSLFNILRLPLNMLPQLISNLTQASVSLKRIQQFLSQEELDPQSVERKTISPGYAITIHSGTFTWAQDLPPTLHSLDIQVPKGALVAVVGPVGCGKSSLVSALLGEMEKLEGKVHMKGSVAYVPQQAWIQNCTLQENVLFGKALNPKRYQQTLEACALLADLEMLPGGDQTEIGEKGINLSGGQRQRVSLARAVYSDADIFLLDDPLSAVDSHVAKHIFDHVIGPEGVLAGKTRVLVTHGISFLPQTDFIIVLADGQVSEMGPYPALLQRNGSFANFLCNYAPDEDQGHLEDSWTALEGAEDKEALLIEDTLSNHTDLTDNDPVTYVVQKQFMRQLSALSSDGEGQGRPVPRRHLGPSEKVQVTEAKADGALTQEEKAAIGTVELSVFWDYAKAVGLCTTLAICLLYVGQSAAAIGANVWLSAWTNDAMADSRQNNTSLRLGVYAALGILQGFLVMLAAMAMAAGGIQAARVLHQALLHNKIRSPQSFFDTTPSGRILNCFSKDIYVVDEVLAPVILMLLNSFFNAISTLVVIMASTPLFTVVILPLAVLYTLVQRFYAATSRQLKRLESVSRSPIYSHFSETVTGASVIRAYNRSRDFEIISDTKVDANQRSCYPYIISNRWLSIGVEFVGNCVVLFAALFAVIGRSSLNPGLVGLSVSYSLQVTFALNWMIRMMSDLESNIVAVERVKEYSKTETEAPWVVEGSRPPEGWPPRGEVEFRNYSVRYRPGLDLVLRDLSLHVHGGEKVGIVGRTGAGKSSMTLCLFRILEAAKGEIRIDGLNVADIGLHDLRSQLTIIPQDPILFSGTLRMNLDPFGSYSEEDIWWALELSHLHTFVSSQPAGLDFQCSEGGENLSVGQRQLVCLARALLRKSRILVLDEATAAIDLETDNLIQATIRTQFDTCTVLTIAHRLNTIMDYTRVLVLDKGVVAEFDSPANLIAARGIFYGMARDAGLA
Series [2] concerns the target ATP-binding cassette sub-family C member 2 (Homo sapiens, UniProt Q92887). The experiment in a line: Inhibition of human MRP2 overexpressed in Sf9 cell membrane vesicles assessed as uptake of [3H]-estradiol-17beta-D-glucuronide in presence of ATP and GSH measured after 20 mins by membrane vesicle transport assay.
The nature of series [3]: Ratio of drug concentration at steady state in human at 400 mg, po BID for 5 to 10 days after 12 hrs to IC50 for human BSEP overexpressed in Sf9 insect cells. Conditions: in vivo. Format: ADME, organism-based.
Series [4] addresses T1, ATP-binding cassette sub-family C member 4 (Homo sapiens, UniProt O15439).
T1 sequence (O15439 whole entry): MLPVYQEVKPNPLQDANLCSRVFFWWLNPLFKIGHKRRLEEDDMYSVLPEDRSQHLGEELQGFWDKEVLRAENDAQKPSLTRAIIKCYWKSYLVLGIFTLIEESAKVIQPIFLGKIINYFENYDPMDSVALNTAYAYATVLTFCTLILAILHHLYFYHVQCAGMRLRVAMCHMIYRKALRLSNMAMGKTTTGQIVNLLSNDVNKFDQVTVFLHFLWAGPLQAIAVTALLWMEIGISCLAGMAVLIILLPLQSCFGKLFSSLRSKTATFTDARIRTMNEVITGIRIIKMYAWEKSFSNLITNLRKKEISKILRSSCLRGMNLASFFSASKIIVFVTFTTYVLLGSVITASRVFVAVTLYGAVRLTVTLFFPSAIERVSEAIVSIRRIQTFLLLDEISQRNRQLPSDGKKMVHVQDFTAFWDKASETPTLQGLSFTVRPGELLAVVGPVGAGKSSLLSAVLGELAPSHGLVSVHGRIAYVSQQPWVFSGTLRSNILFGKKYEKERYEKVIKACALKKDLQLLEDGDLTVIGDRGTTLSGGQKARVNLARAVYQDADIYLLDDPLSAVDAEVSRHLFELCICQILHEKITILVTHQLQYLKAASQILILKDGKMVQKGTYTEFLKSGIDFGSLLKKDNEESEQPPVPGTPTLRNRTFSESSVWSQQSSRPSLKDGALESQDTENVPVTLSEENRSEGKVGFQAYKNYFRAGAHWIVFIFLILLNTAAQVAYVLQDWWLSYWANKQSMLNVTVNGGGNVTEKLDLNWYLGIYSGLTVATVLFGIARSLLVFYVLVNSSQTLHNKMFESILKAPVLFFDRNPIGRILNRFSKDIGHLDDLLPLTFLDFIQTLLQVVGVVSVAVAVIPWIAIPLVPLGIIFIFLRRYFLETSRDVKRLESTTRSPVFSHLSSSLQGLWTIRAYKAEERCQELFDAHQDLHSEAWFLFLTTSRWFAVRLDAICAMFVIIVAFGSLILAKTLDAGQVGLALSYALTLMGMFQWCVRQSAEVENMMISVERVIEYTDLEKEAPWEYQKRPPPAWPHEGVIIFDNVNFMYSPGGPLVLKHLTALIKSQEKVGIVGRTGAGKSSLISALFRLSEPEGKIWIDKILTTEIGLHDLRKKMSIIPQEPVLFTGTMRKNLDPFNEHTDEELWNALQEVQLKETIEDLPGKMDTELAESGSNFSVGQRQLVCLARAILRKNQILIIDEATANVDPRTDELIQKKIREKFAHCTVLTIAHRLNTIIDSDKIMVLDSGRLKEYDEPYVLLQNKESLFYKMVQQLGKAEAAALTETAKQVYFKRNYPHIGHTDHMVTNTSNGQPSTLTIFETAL
The experiment in a line: Inhibition of human MRP4 overexpressed in Sf9 cell membrane vesicles assessed as uptake of [3H]-estradiol-17beta-D-glucuronide in presence of ATP and GSH measured after 20 mins by membrane vesicle transport assay. Type of series: ADME, cell-based.

Series [5] can be described thus: Drug concentration at steady state in human at 400 mg, po BID for 5 to 10 days after 12 hrs. Format: ADME, organism-based. Conditions: in vivo, read-out: Css.
Series [6] can be described thus: Ratio of drug concentration at steady state in human at 400 mg, po BID for 5 to 10 days after 12 hrs to IC50 for human MRP4 overexpressed in Sf9 insect cells. Format: ADME, organism-based. Conditions: in vivo.
Series [7] is described as follows: AUC in human at 400 mg, po BID for 5 to 10 days after 12 hrs. Set-up: dose 400 mg, time < 12 hr, route oral. As to conditions: in vivo. Type of series: ADME, organism-based.
A short description of series [8]: AUC in human at 400 to 1200 mg, po TID after 8 hrs. Type of series: ADME, organism-based. Conditions: in vivo.
Series [9] can be described thus: Drug concentration at steady state in human at 400 to 1200 mg, po TID after 8 hrs. As to conditions: in vivo, read-out: Css. Format: ADME, organism-based.
Series [10] is described as follows: Drug concentration at steady state in human at 100 to 200 mg, po QD after 24 hrs. Type of series: ADME, organism-based. As to conditions: in vivo, read-out: Css.
A short description of series [11]: Ratio of drug concentration at steady state in human at 100 to 200 mg, po QD after 24 hrs to IC50 for human BSEP overexpressed in Sf9 insect cells. Type of series: ADME, organism-based. As to conditions: in vivo.
Series [12] can be described thus: Ratio of drug concentration at steady state in human at 100 to 200 mg, po QD after 24 hrs to IC50 for human MRP2 overexpressed in Sf9 insect cells. Format: ADME, organism-based. As to conditions: in vivo.
Series [13] in a line: AUC in human at 100 to 200 mg, po QD after 24 hrs. As to conditions: in vivo. Type of series: ADME, organism-based.
Series [14] in a line: Ratio of drug concentration at steady state in human at 100 to 200 mg, po QD after 24 hrs to IC50 for human MRP4 overexpressed in Sf9 insect cells. Format: ADME, organism-based. Conditions: in vivo.
A short description of series [15]: Drug concentration at steady state in human at 400 to 600 mg, po QD after 24 hrs. Format: ADME, organism-based. As to conditions: in vivo, read-out: Css.
A short description of series [16]: AUC in human at 400 to 600 mg, po QD after 24 hrs. Type of series: ADME, organism-based. As to conditions: in vivo.

A value given as a limit tells only on which side of the number the result lay.

ATP-binding cassette sub-family C member 2, sequence (Q92887 whole entry): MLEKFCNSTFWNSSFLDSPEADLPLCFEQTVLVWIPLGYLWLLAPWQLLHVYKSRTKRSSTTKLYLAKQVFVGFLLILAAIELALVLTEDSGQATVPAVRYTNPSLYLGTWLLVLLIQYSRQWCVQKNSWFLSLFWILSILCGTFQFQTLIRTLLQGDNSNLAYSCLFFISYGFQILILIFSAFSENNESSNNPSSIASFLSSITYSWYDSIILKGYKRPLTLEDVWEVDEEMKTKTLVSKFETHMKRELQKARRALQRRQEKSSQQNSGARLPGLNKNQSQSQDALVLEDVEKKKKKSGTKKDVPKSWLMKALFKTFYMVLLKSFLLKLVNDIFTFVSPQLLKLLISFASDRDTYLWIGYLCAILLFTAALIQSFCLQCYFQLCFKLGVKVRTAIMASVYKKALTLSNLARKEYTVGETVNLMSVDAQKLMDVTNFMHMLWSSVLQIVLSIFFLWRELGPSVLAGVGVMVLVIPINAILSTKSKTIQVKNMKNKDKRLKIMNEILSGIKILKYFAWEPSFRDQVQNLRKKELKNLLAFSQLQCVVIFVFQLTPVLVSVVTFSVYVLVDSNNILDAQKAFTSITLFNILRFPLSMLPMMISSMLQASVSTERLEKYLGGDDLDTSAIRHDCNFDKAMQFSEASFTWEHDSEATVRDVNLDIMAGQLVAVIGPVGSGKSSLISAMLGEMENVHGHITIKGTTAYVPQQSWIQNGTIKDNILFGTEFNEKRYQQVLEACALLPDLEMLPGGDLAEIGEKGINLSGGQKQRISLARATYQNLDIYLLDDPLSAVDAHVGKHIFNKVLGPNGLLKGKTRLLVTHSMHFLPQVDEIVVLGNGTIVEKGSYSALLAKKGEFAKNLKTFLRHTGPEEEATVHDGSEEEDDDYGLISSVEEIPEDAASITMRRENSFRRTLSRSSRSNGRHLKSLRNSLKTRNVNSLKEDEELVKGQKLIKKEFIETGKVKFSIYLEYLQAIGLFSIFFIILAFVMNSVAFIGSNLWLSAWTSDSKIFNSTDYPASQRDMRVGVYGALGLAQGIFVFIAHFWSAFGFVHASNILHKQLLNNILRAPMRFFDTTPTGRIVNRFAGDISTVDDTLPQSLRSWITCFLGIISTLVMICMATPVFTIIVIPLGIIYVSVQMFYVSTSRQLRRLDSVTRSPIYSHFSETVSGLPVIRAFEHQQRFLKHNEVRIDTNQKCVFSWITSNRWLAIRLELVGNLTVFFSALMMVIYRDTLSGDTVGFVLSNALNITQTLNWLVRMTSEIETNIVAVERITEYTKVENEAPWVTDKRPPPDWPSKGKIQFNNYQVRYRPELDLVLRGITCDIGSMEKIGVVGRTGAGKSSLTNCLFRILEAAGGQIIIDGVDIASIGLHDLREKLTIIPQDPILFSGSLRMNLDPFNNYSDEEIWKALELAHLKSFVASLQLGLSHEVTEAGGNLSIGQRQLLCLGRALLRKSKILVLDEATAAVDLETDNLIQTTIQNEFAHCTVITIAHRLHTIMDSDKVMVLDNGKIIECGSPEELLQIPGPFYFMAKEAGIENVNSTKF

Consider `CC[C@H]1OC(=O)[C@H](C)C(=O)[C@H](C)[C@@H](O[C@@H]2O[C@H](C)C[C@H](N(C)C)[C@H]2O)[C@](C)(OC)C[C@@H](C)C(=O)[C@H](C)[C@H]2N(CCCCn3cnc(-c4cccnc4)c3)C(=O)O[C@]12C` [TELITHROMYCIN], for which the IC50 (commonly the concentration needed to halve the response being measured) is 5 µM at Bile salt export pump, more than 133 µM in [1], more than 133 µM in series [2] and 7.1 µM in series [4]. Further, the Ratio is on record as 0.193 in series [3] and 0.136 in [6]. Besides, in series [5], the concentration at 12 h turned out to be 964 nM. Also, the AUC (as a rule, the area under the concentration-time curve, a measure of exposure) at 12 h in [7] is 11.6 µM·h.
Regarding `CC(C)(C)NC(=O)[C@@H]1C[C@@H]2CCCC[C@@H]2CN1C[C@@H](O)[C@H](Cc1ccccc1)NC(=O)[C@H](CC(N)=O)NC(=O)c1ccc2ccccc2n1`, the IC50 in series [1] is 42 µM; in series [2], more than 133 µM; in series [4], 59 µM. Besides, in series [8], the AUC at 8 h was found to be 9.69 µM·h. Moreover, the concentration at 8 h in series [9] stood at 1210 nM.
Consider `CCc1oc2ccccc2c1C(=O)c1cc(Br)c(O)c(Br)c1` [BENZBROMARONE], for which, in [10], the concentration at 24 h worked out at 1880 nM. The IC50 in series [1] is more than 133 µM; in [2], 41.6 µM; in [4], 17 µM. Moreover, the Ratio came to 0.107 in [11], 0.045 in series [12] and 0.11 in [14]. Also, the AUC at 24 h in series [13] was found to be 45 µM·h.
In the case of `Cc1ccc(NC(=O)c2ccc(CN3CCN(C)CC3)cc2)cc1Nc1nccc(-c2cccnc2)n1` [IMATINIB], the IC50 in series [1], in [2] and in [4] was more than 133 µM throughout. Also, in [15], the concentration at 24 h came to 4410 nM. The molecule further had an AUC at 24 h in series [16] of 106 µM·h.
